Like-named read-outs stand apart in the source and are kept apart here.
Tests used:
[1] = target: GluN1-1a/GluN2B NMDAR (wildtype) (Rattus norvegicus, UniProt P35439+Q00960); type: cell-based; settings: for p (slope of the dose-response curve) / A2 ± SE (maximum inhibition from dose-response curve): −70 mV; for A2 ± SE (maximum inhibition from dose-response curve): flexible A2
GluN1-1a/GluN2D NMDAR = GluN1-1a/GluN2D NMDAR (Rattus norvegicus, UniProt P35439+Q62645); experiment: cell-based; settings: read-out: ion current inhibition % ± SEM, GluN2D
GluN1-1a WT/GluN2B I111A [2] = target: T1, GluN1-1a WT/GluN2B I111A (Rattus norvegicus, UniProt P35439+Q00960, I111A)
T1 sequence (Q00960 27-1482 I111A, other chains not shown): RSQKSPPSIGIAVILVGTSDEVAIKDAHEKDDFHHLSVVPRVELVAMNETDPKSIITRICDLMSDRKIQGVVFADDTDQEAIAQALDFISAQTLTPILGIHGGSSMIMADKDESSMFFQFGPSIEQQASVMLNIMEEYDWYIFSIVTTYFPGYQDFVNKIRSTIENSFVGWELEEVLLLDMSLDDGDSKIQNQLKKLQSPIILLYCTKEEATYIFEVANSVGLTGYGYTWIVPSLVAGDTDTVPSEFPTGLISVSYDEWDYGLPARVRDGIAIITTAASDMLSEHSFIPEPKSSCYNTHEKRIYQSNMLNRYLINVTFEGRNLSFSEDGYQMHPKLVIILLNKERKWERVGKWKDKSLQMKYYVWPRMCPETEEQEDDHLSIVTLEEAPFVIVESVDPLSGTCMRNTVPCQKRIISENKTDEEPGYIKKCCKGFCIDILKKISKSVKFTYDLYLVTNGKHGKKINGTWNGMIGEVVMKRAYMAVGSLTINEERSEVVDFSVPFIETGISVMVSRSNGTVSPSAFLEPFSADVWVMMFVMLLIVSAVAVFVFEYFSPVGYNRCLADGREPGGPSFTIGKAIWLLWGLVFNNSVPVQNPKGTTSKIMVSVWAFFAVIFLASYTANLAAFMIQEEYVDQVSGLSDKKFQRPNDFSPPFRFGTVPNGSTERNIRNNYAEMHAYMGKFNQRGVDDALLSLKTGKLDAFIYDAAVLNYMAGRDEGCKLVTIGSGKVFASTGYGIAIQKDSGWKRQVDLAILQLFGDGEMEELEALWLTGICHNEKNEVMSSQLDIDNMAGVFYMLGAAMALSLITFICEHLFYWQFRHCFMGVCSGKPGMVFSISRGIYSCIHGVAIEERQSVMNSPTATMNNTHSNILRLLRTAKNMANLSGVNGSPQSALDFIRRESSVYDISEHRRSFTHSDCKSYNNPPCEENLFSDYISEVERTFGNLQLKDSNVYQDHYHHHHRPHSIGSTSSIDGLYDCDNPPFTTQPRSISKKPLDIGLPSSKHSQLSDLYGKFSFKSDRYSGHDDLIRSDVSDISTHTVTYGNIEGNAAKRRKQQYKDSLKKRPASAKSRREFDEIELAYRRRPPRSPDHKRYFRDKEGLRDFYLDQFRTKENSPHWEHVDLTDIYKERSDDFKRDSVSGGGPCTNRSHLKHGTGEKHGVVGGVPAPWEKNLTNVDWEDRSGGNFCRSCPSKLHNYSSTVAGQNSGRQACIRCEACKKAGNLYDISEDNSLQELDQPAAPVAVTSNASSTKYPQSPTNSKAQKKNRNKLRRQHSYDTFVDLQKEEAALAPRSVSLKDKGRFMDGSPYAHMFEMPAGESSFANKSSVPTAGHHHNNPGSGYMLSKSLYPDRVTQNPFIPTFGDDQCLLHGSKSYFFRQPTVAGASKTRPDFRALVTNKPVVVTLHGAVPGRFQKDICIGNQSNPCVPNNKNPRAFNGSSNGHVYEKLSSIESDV

GluN1-1a WT/GluN2B F176Y [3] = target: T2, GluN1-1a WT/GluN2B F176Y (Rattus norvegicus, UniProt P35439+Q00960, F176Y); experiment: cell-based
T2 sequence (Q00960 27-1482 F176Y, other chains not shown): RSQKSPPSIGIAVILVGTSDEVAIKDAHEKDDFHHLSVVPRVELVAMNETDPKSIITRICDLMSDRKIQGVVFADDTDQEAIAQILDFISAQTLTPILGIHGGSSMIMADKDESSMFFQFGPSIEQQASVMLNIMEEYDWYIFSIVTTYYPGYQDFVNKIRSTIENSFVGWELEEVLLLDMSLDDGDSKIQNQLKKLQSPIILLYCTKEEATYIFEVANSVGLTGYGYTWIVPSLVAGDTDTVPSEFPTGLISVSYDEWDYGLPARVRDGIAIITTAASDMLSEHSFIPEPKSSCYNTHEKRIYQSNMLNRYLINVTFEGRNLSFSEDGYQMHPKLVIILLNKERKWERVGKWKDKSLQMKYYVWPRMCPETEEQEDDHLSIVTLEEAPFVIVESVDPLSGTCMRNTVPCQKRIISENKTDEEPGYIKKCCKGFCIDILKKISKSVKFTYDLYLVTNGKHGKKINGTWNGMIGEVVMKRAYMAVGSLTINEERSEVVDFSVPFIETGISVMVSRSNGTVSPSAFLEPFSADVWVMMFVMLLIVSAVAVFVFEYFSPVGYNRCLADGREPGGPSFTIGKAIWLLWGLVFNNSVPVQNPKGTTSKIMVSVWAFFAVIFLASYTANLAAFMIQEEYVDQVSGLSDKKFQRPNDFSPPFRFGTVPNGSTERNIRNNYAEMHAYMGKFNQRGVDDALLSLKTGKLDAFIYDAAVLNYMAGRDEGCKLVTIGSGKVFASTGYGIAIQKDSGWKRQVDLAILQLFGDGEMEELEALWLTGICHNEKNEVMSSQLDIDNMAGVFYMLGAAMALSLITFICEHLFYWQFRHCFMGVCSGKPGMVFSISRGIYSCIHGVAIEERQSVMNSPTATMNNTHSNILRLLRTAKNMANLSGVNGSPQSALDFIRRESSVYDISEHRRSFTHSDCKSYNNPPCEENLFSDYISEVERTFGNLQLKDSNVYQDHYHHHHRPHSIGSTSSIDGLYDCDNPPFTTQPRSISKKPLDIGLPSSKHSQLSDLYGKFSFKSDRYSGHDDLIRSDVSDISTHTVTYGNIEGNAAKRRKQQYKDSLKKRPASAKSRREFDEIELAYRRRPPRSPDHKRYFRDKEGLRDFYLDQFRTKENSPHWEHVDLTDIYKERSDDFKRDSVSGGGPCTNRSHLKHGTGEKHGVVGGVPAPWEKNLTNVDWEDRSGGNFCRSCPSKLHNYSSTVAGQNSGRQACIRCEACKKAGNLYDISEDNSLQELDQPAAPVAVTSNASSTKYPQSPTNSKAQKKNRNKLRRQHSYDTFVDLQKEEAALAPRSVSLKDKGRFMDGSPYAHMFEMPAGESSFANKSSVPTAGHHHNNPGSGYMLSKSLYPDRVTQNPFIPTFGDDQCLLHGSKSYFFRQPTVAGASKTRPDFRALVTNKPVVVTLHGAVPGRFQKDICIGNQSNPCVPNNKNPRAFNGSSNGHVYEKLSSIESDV

GluN1-1a WT/GluN2B F176A [4] = target: T3, GluN1-1a WT/GluN2B F176A (Rattus norvegicus, UniProt P35439+Q00960, F176A); experiment: cell-based
T3 sequence (Q00960 27-1482 F176A, other chains not shown): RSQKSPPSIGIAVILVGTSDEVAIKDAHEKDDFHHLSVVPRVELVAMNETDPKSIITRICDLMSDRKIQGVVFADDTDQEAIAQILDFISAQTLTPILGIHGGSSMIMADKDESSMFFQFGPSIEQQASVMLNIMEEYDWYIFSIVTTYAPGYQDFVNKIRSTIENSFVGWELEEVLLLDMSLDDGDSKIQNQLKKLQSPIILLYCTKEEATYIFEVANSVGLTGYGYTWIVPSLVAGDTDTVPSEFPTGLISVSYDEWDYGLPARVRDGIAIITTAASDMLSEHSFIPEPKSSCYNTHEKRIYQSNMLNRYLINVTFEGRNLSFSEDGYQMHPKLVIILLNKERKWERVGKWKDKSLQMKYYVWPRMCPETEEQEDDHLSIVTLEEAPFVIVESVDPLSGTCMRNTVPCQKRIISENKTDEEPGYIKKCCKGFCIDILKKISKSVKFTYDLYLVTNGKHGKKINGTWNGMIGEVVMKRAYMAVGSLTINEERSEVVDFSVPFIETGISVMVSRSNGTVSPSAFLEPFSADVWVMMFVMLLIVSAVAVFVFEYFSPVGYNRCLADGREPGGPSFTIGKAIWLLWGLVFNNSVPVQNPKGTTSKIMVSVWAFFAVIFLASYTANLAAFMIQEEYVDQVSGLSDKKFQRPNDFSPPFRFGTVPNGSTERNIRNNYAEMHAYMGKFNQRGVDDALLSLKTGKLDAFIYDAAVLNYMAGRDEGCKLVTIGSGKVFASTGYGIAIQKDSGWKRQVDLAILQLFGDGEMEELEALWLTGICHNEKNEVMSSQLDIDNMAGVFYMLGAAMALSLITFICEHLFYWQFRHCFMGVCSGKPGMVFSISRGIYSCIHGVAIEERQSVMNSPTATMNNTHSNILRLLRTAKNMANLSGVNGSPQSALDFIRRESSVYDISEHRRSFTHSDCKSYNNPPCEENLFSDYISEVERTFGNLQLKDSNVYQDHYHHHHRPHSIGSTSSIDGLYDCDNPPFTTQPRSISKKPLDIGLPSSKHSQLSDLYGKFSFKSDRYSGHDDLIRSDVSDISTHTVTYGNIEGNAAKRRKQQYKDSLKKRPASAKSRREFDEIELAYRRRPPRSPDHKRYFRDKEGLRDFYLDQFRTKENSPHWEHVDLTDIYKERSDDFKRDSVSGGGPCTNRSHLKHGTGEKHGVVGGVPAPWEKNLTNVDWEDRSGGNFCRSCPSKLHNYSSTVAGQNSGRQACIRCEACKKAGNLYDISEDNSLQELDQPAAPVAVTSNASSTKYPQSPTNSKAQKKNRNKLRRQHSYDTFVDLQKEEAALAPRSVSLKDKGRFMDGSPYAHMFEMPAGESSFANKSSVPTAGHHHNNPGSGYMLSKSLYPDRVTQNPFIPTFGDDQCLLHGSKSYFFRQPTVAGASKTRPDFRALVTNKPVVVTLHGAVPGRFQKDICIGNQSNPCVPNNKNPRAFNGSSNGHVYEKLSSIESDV

GluN1-1a WT/GluN2B F176Y [5] = target: T2, GluN1-1a WT/GluN2B F176Y
GluN1-1a L135N/GluN2B WT [6] = target: T4, GluN1-1a L135N/GluN2B WT (Rattus norvegicus, UniProt P35439+Q00960, L135N)
GluN1-1a WT/GluN2B F176A [7] = target: T3, GluN1-1a WT/GluN2B F176A
GluN1-1a/GluN2C NMDAR [8] = target: T5, GluN1-1a/GluN2C NMDAR (Rattus norvegicus, UniProt P35439+Q00961); settings: from inhibition at 10 µM (GluN2C, GluN2D) versus IC50 at GluN2B
GluN1-1a Y109S/GluN2B WT [9] = target: T6, GluN1-1a Y109S/GluN2B WT (Rattus norvegicus, UniProt P35439+Q00960, Y109S)
GluN1-1a F113S/GluN2B WT [10] = target: T7, GluN1-1a F113S/GluN2B WT (Rattus norvegicus, UniProt P35439+Q00960, F113S); experiment: cell-based
GluN1-1a WT/GluN2B F114A [11] = target: T8, GluN1-1a WT/GluN2B F114A (Rattus norvegicus, UniProt P35439+Q00960, F114A); experiment: cell-based
GluN1-1a L135N/GluN2B WT [12] = target: T4, GluN1-1a L135N/GluN2B WT; experiment: cell-based
GluN1-1a WT/GluN2B F114A [13] = target: T8, GluN1-1a WT/GluN2B F114A
GluN1-1a WT/GluN2B E236A [14] = target: T9, GluN1-1a WT/GluN2B E236A (Rattus norvegicus, UniProt P35439+Q00960, E236A); experiment: cell-based
GluN1-1a WT/GluN2B Q110A [15] = target: T10, GluN1-1a WT/GluN2B Q110A (Rattus norvegicus, UniProt P35439+Q00960, Q110A); experiment: cell-based
GluN1-1a WT/GluN2B E236A [16] = target: T9, GluN1-1a WT/GluN2B E236A
GluN1-1a/GluN2C NMDAR [17] = target: T5, GluN1-1a/GluN2C NMDAR; experiment: cell-based; settings: read-out: ion current inhibition % ± SEM, GluN2C
GluN1-1a F113S/GluN2B WT [18] = target: T7, GluN1-1a F113S/GluN2B WT
GluN1-1a/GluN2A NMDAR = GluN1-1a/GluN2A NMDAR (Rattus norvegicus, UniProt P35439+Q00959); experiment: cell-based; settings: read-out: ion current inhibition % ± SEM, GluN2A
GluN1-1a S132A/GluN2B WT [19] = target: T11, GluN1-1a S132A/GluN2B WT (Rattus norvegicus, UniProt P35439+Q00960, S132A); experiment: cell-based
GluN1-1a Y109S/GluN2B WT [20] = target: T6, GluN1-1a Y109S/GluN2B WT; experiment: cell-based
GluN1-1a S132A/GluN2B WT [21] = target: T11, GluN1-1a S132A/GluN2B WT
GluN1-1a WT/GluN2B I111A [22] = target: T1, GluN1-1a WT/GluN2B I111A; experiment: cell-based
GluN1-1a WT/GluN2B Q110A [23] = target: T10, GluN1-1a WT/GluN2B Q110A

Oc1ccc2c(c1)CCN(CCCCc1ccccc1)CC2 [compound 3] was tested, and the IC50 ([1]; TEVC, holding potential −70 mV, 10 µM glycine and 10 µM (S)-glutamate, wildtype, read-out: IC50 ± SE) was 3370 ± 926 nM, the “p (slope of the dose-response curve)” value ([1]; TEVC, wildtype) was 0.93 and the “A2 ± SE (maximum inhibition from dose-response curve)” value ([1]; TEVC, wildtype) was 92 ± 8%. For the same compound, the “IC50 shift compared to rac-1” value ([1]; wildtype GluN1-1a/GluN2B, IC50 increase relative to rac-1) was 36 fold.
For C[C@@H]1[C@H](O)c2ccc(O)cc2CCN1CCCCc1ccccc1 [compound 2], the inhibition at 10 µM (GluN1-1a/GluN2D NMDAR) was 55 ± 2%, the “p (slope)” value (GluN1-1a WT/GluN2B I111A [2]; GluN2B I111A) was 0.86 and the “A2 ± SE” value (GluN1-1a WT/GluN2B I111A [2]; GluN2B I111A, flexible A2) was 96 ± 4%. The IC50 shift factor (GluN1-1a WT/GluN2B I111A [2]; mutant IC50 / wildtype IC50, GluN2B I111A) was 4.2, the IC50 (GluN1-1a WT/GluN2B F176Y [3]) was 84 ± 9 nM and the IC50 (GluN1-1a WT/GluN2B F176A [4]) was 1810 ± 127 nM. For the same compound, the “p (slope)” value (GluN1-1a WT/GluN2B F176Y [5]; GluN2B F176Y) was 1.00, the “A2, fixed-to-wildtype (*)” value (GluN1-1a WT/GluN2B F176Y [5]; GluN2B F176Y, maximum inhibition fixed to wildtype value) was 97% and the IC50 shift factor (GluN1-1a WT/GluN2B F176Y [5]; mutant IC50 / wildtype IC50, GluN2B F176Y) was 0.9. For the same compound, the “p (slope)” value (GluN1-1a L135N/GluN2B WT [6]; GluN1-1a L135N) was 0.72, the “A2 ± SE” value (GluN1-1a L135N/GluN2B WT [6]; GluN1-1a L135N, flexible A2) was 100 ± 5% and the IC50 shift factor (GluN1-1a L135N/GluN2B WT [6]; mutant IC50 / wildtype IC50, GluN1-1a L135N) was 9.2. For the same compound, the IC50 [1] was 91 ± 7 nM, the “p (slope of the dose-response curve)” value ([1]; TEVC, wildtype) was 1.08 and the “A2 ± SE (maximum inhibition from dose-response curve)” value ([1]; TEVC, wildtype) was 97 ± 2%. The inhibition at 10 µM ([1]; read-out: ion current inhibition % ± SEM, GluN2B) was 95 ± 1%, the “p (slope)” value (GluN1-1a WT/GluN2B F176A [7]; GluN2B F176A) was 0.94 and the “A2, fixed-to-wildtype (*)” value (GluN1-1a WT/GluN2B F176A [7]; GluN2B F176A, maximum inhibition fixed to wildtype value) was 97%. The IC50 shift factor (GluN1-1a WT/GluN2B F176A [7]; mutant IC50 / wildtype IC50, GluN2B F176A) was 19.9, the “lower activity at GluN2C and GluN2D than at GluN2B subunit-containing NMDARs” value (GluN1-1a/GluN2C NMDAR [8]) was “at least 100 fold” and the “p (slope)” value (GluN1-1a Y109S/GluN2B WT [9]; GluN1-1a Y109S) was 0.86. For the same compound, the “A2 ± SE” value (GluN1-1a Y109S/GluN2B WT [9]; GluN1-1a Y109S, flexible A2) was 96 ± 2%, the IC50 shift factor (GluN1-1a Y109S/GluN2B WT [9]; mutant IC50 / wildtype IC50, GluN1-1a Y109S) was 1.5 and the IC50 (GluN1-1a F113S/GluN2B WT [10]) was 76 ± 17 nM. For the same compound, the IC50 (GluN1-1a WT/GluN2B F114A [11]) was 667 ± 90 nM, the IC50 (GluN1-1a L135N/GluN2B WT [12]) was 835 ± 184 nM and the “p (slope)” value (GluN1-1a WT/GluN2B F114A [13]; GluN2B F114A) was 1.03. For the same compound, the “A2, fixed-to-wildtype (*)” value (GluN1-1a WT/GluN2B F114A [13]; GluN2B F114A, maximum inhibition fixed to wildtype value) was 97%, the IC50 shift factor (GluN1-1a WT/GluN2B F114A [13]; mutant IC50 / wildtype IC50, GluN2B F114A) was 7.3 and the IC50 (GluN1-1a WT/GluN2B E236A [14]) was 108 ± 16 nM. For the same compound, the IC50 (GluN1-1a WT/GluN2B Q110A [15]) was 130 ± 6 nM, the “p (slope)” value (GluN1-1a WT/GluN2B E236A [16]; GluN2B E236A) was 1.09 and the “A2 ± SE” value (GluN1-1a WT/GluN2B E236A [16]; GluN2B E236A, flexible A2) was 95 ± 3%. The IC50 shift factor (GluN1-1a WT/GluN2B E236A [16]; mutant IC50 / wildtype IC50, GluN2B E236A) was 1.2, the inhibition at 10 µM (GluN1-1a/GluN2C NMDAR [17]) was 56 ± 2% and the “p (slope)” value (GluN1-1a F113S/GluN2B WT [18]; GluN1-1a F113S) was 0.57. The “A2 ± SE” value (GluN1-1a F113S/GluN2B WT [18]; GluN1-1a F113S, flexible A2) was 100 ± 3%, the IC50 shift factor (GluN1-1a F113S/GluN2B WT [18]; mutant IC50 / wildtype IC50, GluN1-1a F113S) was 0.8 and the inhibition at 10 µM (GluN1-1a/GluN2A NMDAR) was 15 ± 5%. The IC50 (GluN1-1a S132A/GluN2B WT [19]) was 387 ± 57 nM, the IC50 (GluN1-1a Y109S/GluN2B WT [20]) was 140 ± 19 nM and the “p (slope)” value (GluN1-1a S132A/GluN2B WT [21]; GluN1-1a S132A) was 0.78. The “A2 ± SE” value (GluN1-1a S132A/GluN2B WT [21]; GluN1-1a S132A, flexible A2) was 100 ± 3%, the IC50 shift factor (GluN1-1a S132A/GluN2B WT [21]; mutant IC50 / wildtype IC50, GluN1-1a S132A) was 4.3 and the IC50 (GluN1-1a WT/GluN2B I111A [22]) was 380 ± 82 nM. The “p (slope)” value (GluN1-1a WT/GluN2B Q110A [23]; GluN2B Q110A) was 1.79, the “A2 ± SE” value (GluN1-1a WT/GluN2B Q110A [23]; GluN2B Q110A, flexible A2) was 95 ± 1% and the IC50 shift factor (GluN1-1a WT/GluN2B Q110A [23]; mutant IC50 / wildtype IC50, GluN2B Q110A) was 1.4.

Source: publication PMC6858350, “A common mechanism allows selective targeting of GluN2B subunit-containing N-methyl-D-aspartate receptors” (Communications Biology, 2019)
